The assay has as its target T1, CD28 (Macaca fascicularis, UniProt Q0PDN3).
T1 construct: purchased Sino Biological
In words: Surface plasmon resonance (SPR), Biacore T200. The class given is binding. The following applies: BT2 up to 20 μM (8-point dilution series), 12° C., 20 mM HEPES, 150 mM NaCl, 5% DMSO, pH 7.5. The method, then:
Surface plasmon resonance (SPR). Using a Biacore T200 (Cytiva), CD28 (Sino Biological) was immobilised onto a Series S sensor Chip CM5 (GE) by amine coupling to a level of ˜3000 RU on flow cells 2 and 4 at 25° C., with a flowrate of 10 μl/min. 0.2 M EDC+0.05 M NHS was injected for 420 s followed by CD28 (37.5 μg/ml in 10 mM acetate pH 5) for 450 s with the flowrate reduced to 2 μl/min. Unreacted NHS was blocked with an injection of 1 M ethanolamine-HCl pH 8.5 for 420 s. Flow cells 1 and 3 were used as the reference cells, activated and blocked as described above. Immobilisation running buffer was 20 mM HEPES, 150 mM NaCl, pH 7.5. The SPR run was performed at 12° C. with 20 mM HEPES, 150 mM NaCl, 5% DMSO, pH 7.5 as the running buffer. […] The concentration was confirmed using ^1H 1D NMR. […] Samples were injected for 60 s with a dissociation time of 60 s at a flow rate of 40 μl/min. Solvent correction was performed to correct for excluded volume effects. The integrity of the coupled CD28 was validated by injection of the known binding partner CD80 (Sino Biological) (Waite et al., 2020) (5 point dilution series with 2 μM top concentration).
In T cells, the c-jun promoter is activated by anti-CD28 engagement. CD28, a homodimeric cell surface glycoprotein, is a co-stimulatory signal required for T cell activation. The inventors investigated whether BT2 might interact with CD28. […]
(In general: Surface plasmon resonance follows binding to a sensor surface in real time, without labels.)

Each structure is given as a SMILES string.

T1 sequence (Q0PDN3 19-152): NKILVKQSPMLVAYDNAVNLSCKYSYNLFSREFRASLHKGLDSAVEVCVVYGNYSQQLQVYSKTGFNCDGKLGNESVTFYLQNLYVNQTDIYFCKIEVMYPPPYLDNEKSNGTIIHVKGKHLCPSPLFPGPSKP

For the molecule `CCOC(=O)Nc1ccc2c(c1)C(=O)N(CC)c1ccccc1O2` [BT2, (10-ethyl-11-oxo-10,11-dihydro-dibenzo[b,f][1,4]oxazepin-2-yl)-carbamic acid ethyl ester], the “binding to CD28 (SPR sensorgram)” value is “bound to CD28 in a dose-dependent manner”.
